{"source": "paper PMC10865825", "about": "“Sugar-binding and split domain combinations in repeats-in-toxin adhesins from Vibrio cholerae and Aeromonas veronii mediate cell-surface recognition and hemolytic activities” (mBio, 2024)", "target": "T1, AvSBD-UKD (sugar-binding domain and split Ig-like domain of the A. veronii RTX adhesin, WP_103422706.1)", "T1 construct": "AvSBD-UKD, 40 kDa ortholog construct (WP_103422706.1), spanning SBD and UKD", "experiment": "isothermal titration calorimetry ([…]°C, one-site model, N = […])", "design": "species or system Aeromonas veronii", "data": [{"molecule": "C[C@@H]1OC(O)[C@@H](O)[C@H](O)[C@@H]1O", "note": "(stereo partly drawn) [L-fucose]", "values": [{"measurement": "Kd", "result": 15, "unit": "µM"}]}]}
